Our source for the MIC values is patent US5047520A, “2'-alkylidenepyrimidine nucleoside derivatives, process for production thereof, and uses thereof” (Yamasa Shoyu Kabushiki Kaisha, priority 1987, dated 1991).

Values after ≈ are worked out from the molar mass of the structure shown.

Assay [1] deals with HSV type 1 (HSV-1) strain VR-3. The assay is described as follows: anti-HSV activity: inhibition of cytopathic effect (CPE), HSV-1. The format is cell-based. As to conditions: Human alphaherpesvirus 1; HSV-1 strain VR-3, 100-320 TCID50; human embryonic lung cells; 37° C., 2 to 3 days; read-out: MIC HSV-1 (minimum concentration at which the CPE is inhibited at least by 50%). The procedure: (§1) A. Human embryonic lung cells are subcultivated in Eagle's MEM supplemented with 10% semi-fetal calf serum.
(§2) B. The cells thus subcultivated are used as a parent culture. A cell suspension obtained from the parent culture by dividing it at 1:2 split is seeded into 96 microwells in an amount of 150 μl/well and incubated in a CO2 -incubator at 37° C. for 4 to 5 days.
(§3) C. The culture field is discarded, and 100- to 320-50% tissue culture infective doses (100-320 TCID50) of HSV type 1 (HSV-1) strain VR-3 or HSV type 2 (HSV-2) strain MS is inoculated. After incubation at 37° C. for 1 hour, the virus fluid is discarded, 150 μl of Eagle's MEM supplemented with 2.5% semi-fetal calf serum and containing an appropriate amount of each test compound is added, and cultivation is carried out at 37° C. Each of the test compounds is usually diluted in the range of from 100 to 1 μg/ml by serial 0.5 log10 decrements.
(§4) D. After cultivation for 2 to 3 days, the degree of the cytopathic effect (CPE) caused by the viral infection in each of the wells is observed microscopically. At the time when the control cultures, in which the test compound is absent, have shown complete CPE by the viral infection, the degree of CPE in each well is rated from 0 to 4.
(§5) E. The minimum concentration at which the CPE is inhibited at least by 50% (indicated by the CPE score not exceeding 2) is defined as the minimum inhibitory concentration (MIC) of the test compound.
A general note: Cytopathic effects are the visible damage that an infection or toxin causes in cultured cells.

The subject of assay [2] is HSV type 2 (HSV-2) strain MS. Nature of the assay: anti-HSV activity: inhibition of cytopathic effect (CPE), HSV-2. The assay is classed as cell-based. To be noted: Human alphaherpesvirus 2, 100-320 TCID50, human embryonic lung cells, 37° C., 2 to 3 days, read-out: MIC HSV-2 (minimum concentration at which the CPE is inhibited at least by 50%). The procedure: as §1, §2, §3, §4, §5

Assay [3] has as its system CMV strain AD 169. Nature of the assay: anti-CMV activity: inhibition of plaque formation. The assay is classed as cell-based, cytomegalovirus (CMV). As to conditions: Human betaherpesvirus 5; CMV strain AD 169, about 50 plaque forming units; human embryonic lung cells; 37° C., 4 to 6 days; read-out: MIC CMV (minimum concentration at which the plaque formation is inhibited at least by 50%). The procedure:
as §1
B. The cells thus subcultivated are used as a parent culture. A cell suspension obtained from the parent culture by dividing it at 1:2 split is seeded into 24 semi-microwells in an amount of 150 μl/well and incubated in a CO2 -incubator at 37° C. for 4 to 5 days.
C. The culture fluid is discarded, and about 50 plaque forming units of CMV strain AD 169 is inoculated. After incubation at 37° C. for 1 hour, 400 μl of Eagle's MEM supplemented with 2.5% semi-fetal calf serum and containing an appropriate amount of each test compound is added, and cultivation is carried out at 37° C. Each of the test compounds is usually diluted in the range of from 100 to 1 μg/ml by serial 0.5 log10 decrements.
D. After cultivation for 4 to 6 days, infected cells are stained with a 0.5% Crystal Violet solution, and the number of plaques formed is counted under the microscope.
E. The minimum concentration at which the plaque formation is inhibited at least by 50%, based on the number of plaques formed in the control cultures in which the test compound is absent, is defined as the minimum inhibitory concentration (MIC) of the test compound.

Take `C=C1[C@H](n2cc(I)c(=O)[nH]c2=O)O[C@H](CO)[C@H]1O` [OH I H H, 2'-methylidene-2'-deoxy-5-iodouridine]: the MIC in assay [1] and in assay [2] was 1 µg/mL (≈ 2.73 µM) throughout.
In the case of `C=C1[C@H](n2cc(Br)c(=O)[nH]c2=O)O[C@H](CO)[C@H]1O` [OH Br H H, 2'-methylidene-2'-deoxy-5-bromouridine], the MIC in assay [1] and in assay [2] was 3.2 µg/mL (≈ 10 µM) in each case.
Consider `C=C1[C@H](n2cc(C)c(=O)[nH]c2=O)O[C@H](CO)[C@H]1O` [OH CH3 H H, 2'-methylidenethymidine], for which the MIC stood at 1 µg/mL (≈ 3.93 µM) in assay [1], 1 µg/mL (≈ 3.93 µM) in assay [2] and 5.6 µg/mL (≈ 22 µM) in assay [3].
In the case of `C=C1[C@H](n2cc(Cl)c(=O)[nH]c2=O)O[C@H](CO)[C@H]1O` [OH Cl H H, 2'-methylidene-2'-deoxy-5-chlorouridine], the MIC in assay [1] and in assay [2] was 10 µg/mL (≈ 36.4 µM) throughout.
As for `CC=C1[C@H](n2cc(C)c(=O)[nH]c2=O)O[C@H](CO)[C@H]1O` [OH CH3 CH3 H, 2'-ethylidenethymidine], the figures for the MIC in assay [1] and in assay [2] were 10 µg/mL (≈ 37.3 µM) and 32 µg/mL (≈ 119 µM), respectively.
Take `C=C1[C@H](n2ccc(N)nc2=O)O[C@H](CO)[C@H]1O` [NH2 H H H, 2'-methylidene-2'-deoxycytidine]: the MIC in assay [1] was found to be 1 µg/mL (≈ 4.18 µM); in assay [2], 1 µg/mL (≈ 4.18 µM); in assay [3] it was 0.1 µg/mL (≈ 0.418 µM).
